Measured values published in the NIST ThermoML archive (doi:10.1021/je1005483).

Key:
[1] = xn = mol fraction of the nth substance listed; conditions: 101.3 kPa, Liquid; for speed of sound: 298.15 K
[2] = molar heat capacity at constant pressure; xn = mol fraction of the nth substance listed; conditions: 298.15 K, 101.3 kPa, Liquid, Flow calorimetry

CC1COC(=O)O1 (configuration not stated) [4-methyl-1,3-dioxolan-2-one] + CC#N
Conditions	molar heat capacity at constant pressure, [2] [J/K/mol]	speed of sound, [1] [m/s]
x1 = 0.02042	93.86	–
x1 = 0.04818	95.91	–
x1 = 0.0502	–	1287.5
x1 = 0.08041	98.29	–
x1 = 0.09602	99.45	–
x1 = 0.1021	99.9	–
x1 = 0.1022	–	1296.4
x1 = 0.1298	101.95	–
x1 = 0.1438	103	–
x1 = 0.1512	–	1305.1
x1 = 0.1521	103.61	–
x1 = 0.1801	105.69	–
x1 = 0.193	106.65	–
x1 = 0.1988	107.08	–
x1 = 0.2006	–	1313.9
x1 = 0.3006	114.62	–
x1 = 0.3031	–	1331
x1 = 0.3051	–	1331.6
x1 = 0.3994	121.92	–
x1 = 0.4046	–	1351.6
x1 = 0.4507	125.72	–
x1 = 0.4508	125.72	–
x1 = 0.5067	–	1369
x1 = 0.5997	136.77	–
x1 = 0.5999	136.78	–
x1 = 0.6088	–	1386.6
x1 = 0.6973	144.05	–
x1 = 0.7035	–	1399.3
x1 = 0.7037	–	1399.4
x1 = 0.7485	147.88	–
x1 = 0.7494	147.94	–
x1 = 0.7986	–	1415.1
x1 = 0.856	–	1422.3
x1 = 0.8995	159.26	–
x1 = 0.9004	159.33	–
x1 = 0.9052	–	1427.8
x1 = 0.9518	–	1434.5
x1 = 0.9766	–	1438
x1 = 1	166.98	1443

mass density [kg/m3], [1]
Conditions	308.15 K	318.15 K
x1 = 0.00899	772.153	–
x1 = 0.00987	–	762.8
x1 = 0.01974	779.714	–
x1 = 0.02015	–	770.008
x1 = 0.02827	785.631	–
x1 = 0.03912	793.054	–
x1 = 0.04049	–	783.973
x1 = 0.04976	800.23	–
x1 = 0.04999	–	790.403
x1 = 0.05955	806.732	–
x1 = 0.05968	–	796.854
x1 = 0.06835	812.468	–
x1 = 0.06983	–	803.478
x1 = 0.07649	–	807.807
x1 = 0.08237	821.557	–
x1 = 0.09048	–	816.808
x1 = 0.09065	826.854	–
x1 = 0.09974	832.541	–
x1 = 0.1015	–	823.802
x1 = 0.1473	861.545	–
x1 = 0.1527	–	855.059
x1 = 0.2011	–	882.847
x1 = 0.2018	892.585	–
x1 = 0.2502	–	909.428
x1 = 0.2509	919.09	–
x1 = 0.2971	–	933.541
x1 = 0.2983	943.362	–
x1 = 0.4008	991.468	–
x1 = 0.4037	–	983.751
x1 = 0.4905	1029.07	–
x1 = 0.5036	–	1025.46
x1 = 0.5979	1069.65	–
x1 = 0.6004	–	1061.56
x1 = 0.6902	1101.28	–
x1 = 0.7016	–	1095.76
x1 = 0.7903	1132.31	–
x1 = 0.7997	–	1125.73
x1 = 0.9005	–	1153.94
x1 = 0.901	1163.56	–
x1 = 0.9113	–	1156.82
x1 = 0.9121	1166.51	–
x1 = 0.9218	1169.02	–
x1 = 0.9302	1171.25	–
x1 = 0.934	–	1162.75
x1 = 0.9408	–	1164.5
x1 = 0.9411	1174.08	–
x1 = 0.9504	1176.45	–
x1 = 0.9519	–	1167.38
x1 = 0.9608	–	1169.62
x1 = 0.9609	1179.12	–
x1 = 0.9707	–	1172.11
x1 = 0.9715	1181.77	–
x1 = 0.9815	1184.24	1174.79
x1 = 0.9908	–	1177.08
x1 = 1	1188.73	1179.31
